One block for each compound: values may come before it. Active and inactive are the calls of the source.
Legend:
[1] = biological target: T1, Short transient receptor potential channel 4 (Mus musculus, UniProt Q9QUQ5); test: mouse TRPC4 channel inhibitors, dose response, cell-based, HEK293 TRPC4/mu-opioid, Fluo-4 calcium (AID 434942); type: functional;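 also: potency of inhibitors blocking the TRPC4 calcium response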
T1 sequence (Q9QUQ5 whole entry): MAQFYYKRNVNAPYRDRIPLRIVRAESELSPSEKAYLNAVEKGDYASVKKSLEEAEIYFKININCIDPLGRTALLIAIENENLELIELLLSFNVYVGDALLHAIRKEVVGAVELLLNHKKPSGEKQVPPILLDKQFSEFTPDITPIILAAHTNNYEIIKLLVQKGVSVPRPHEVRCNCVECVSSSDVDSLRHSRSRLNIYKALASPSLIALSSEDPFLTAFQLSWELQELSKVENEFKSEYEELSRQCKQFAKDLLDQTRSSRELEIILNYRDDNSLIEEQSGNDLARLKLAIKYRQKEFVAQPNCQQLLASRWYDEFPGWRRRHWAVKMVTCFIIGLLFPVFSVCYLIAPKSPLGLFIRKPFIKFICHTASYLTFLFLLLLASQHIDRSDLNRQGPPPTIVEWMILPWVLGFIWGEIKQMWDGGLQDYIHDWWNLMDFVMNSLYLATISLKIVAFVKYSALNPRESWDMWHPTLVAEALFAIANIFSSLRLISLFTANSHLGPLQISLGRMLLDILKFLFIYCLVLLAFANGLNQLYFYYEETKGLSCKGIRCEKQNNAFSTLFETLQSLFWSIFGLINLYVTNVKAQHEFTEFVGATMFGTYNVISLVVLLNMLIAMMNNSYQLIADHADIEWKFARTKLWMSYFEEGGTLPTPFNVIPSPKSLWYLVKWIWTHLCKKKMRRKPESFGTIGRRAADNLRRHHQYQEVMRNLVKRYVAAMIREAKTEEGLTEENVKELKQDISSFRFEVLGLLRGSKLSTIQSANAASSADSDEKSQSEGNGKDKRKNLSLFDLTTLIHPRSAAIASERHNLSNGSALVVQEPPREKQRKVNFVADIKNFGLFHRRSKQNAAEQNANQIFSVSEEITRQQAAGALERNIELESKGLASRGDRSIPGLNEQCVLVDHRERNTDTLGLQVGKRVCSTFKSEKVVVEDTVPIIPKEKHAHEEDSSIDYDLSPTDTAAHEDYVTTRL

Escherichia coli = test: microbe, parasite or virus in culture
[2] = Luminescence Cell-Based Dose Confirmation HTS to Identify Inhibitors of Platelet Dense Granule Release. [Related pubchem assays: 1663 (Primary HTS), 1678 (Summary of Project)]; type: functional
[3] = biological target: Luciferin 4-monooxygenase (Photinus pyralis, UniProt P08659); test: firefly luciferase enzyme inhibitors, dose response, biochemical, luminescence (AID 1891)
cells [4] = type: functional, cell-based
cells [5] = type: functional, cell-based; remark: listed apart in the source
[6] = biological target: Dual specificity tyrosine-phosphorylation-regulated kinase 1A (Rattus norvegicus, UniProt Q63470); type: biochemical, Homo sapiens
[7] = biological target: T2, Trace amine-associated receptor 1 (Homo sapiens, UniProt Q96RJ0); test: Fluorescence-based cell-based high throughput dose response assay to identify agonists of the human trace amine associated receptor 1 (TAAR1).; type: functional
T2 sequence (Q96RJ0 whole entry): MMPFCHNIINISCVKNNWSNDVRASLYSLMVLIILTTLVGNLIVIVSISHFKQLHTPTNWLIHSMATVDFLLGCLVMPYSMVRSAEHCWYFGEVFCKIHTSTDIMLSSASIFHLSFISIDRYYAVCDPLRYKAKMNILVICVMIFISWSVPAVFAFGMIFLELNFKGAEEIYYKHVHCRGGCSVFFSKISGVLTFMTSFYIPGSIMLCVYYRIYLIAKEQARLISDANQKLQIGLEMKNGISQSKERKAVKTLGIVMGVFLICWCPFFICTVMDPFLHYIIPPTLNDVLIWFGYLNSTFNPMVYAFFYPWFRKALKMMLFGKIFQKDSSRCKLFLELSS

[8] = biological target: T2, Trace amine-associated receptor 1; test: Counterscreen for agonists of the human trace amine associated receptor 1 (hTAAR1): Fluorescence-based cell-based high throughput dose response assay to identify hTAAR1 agonist that also desensitize TAAR1 receptor response.; type: functional
[9] = biological target: 5-hydroxytryptamine receptor 5A (Homo sapiens, UniProt P47898); test: Counterscreen for agonists of OPRM1-OPRD1 heterodimerization: luminescence-based cell-based high throughput dose response assay to identify agonists of 5-hydroxytryptamine (serotonin) 5A receptor (HTR5A). [Related pubchem assays (depositor defined):AID504326, AID504355, AID504692, AID504904, AID504905]; type: functional
Mu-type opioid receptor = Mu-type opioid receptor (Homo sapiens, UniProt P35372); test: (§1) Counterscreen for agonists of heterodimerization of the mu 1 (OPRM1) and delta 1 (OPRD1) opioid receptors: Luminescence-based cell-based high throughput dose response assay to identify agonists of OPRM1 homodimerization.; type: functional
[10] = biological target: Delta-type opioid receptor (Homo sapiens, UniProt P41143); test: as §1, with “of OPRD1” for “of OPRM1”, “homodimerization. [Related pubchem assays (depositor defined):AID504326, AID504355, AID504692, AID504904, AID504905]” for “homodimerization.”; type: functional
[11] = biological target: T1, Short transient receptor potential channel 4; test: mouse TRPC4 channel activators, dose response, cell-based, HEK293 TRPC4/mu-opioid, Fluo-4 calcium (AID 434937); type: functional
[12] = biological target: DNA dC->dU-editing enzyme APOBEC-3G (Homo sapiens, UniProt Q9HC16); type: functional;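 also: Dose-response counterscreen measuring inhibition of APOBEC3G DNA deaminase activity, run while confirming APOBEC3A inhibitors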
Protein skinhead-1 = biological target: T3, Protein skinhead-1 (Caenorhabditis elegans, UniProt P34707); type: functional
T3 sequence (P34707 whole entry): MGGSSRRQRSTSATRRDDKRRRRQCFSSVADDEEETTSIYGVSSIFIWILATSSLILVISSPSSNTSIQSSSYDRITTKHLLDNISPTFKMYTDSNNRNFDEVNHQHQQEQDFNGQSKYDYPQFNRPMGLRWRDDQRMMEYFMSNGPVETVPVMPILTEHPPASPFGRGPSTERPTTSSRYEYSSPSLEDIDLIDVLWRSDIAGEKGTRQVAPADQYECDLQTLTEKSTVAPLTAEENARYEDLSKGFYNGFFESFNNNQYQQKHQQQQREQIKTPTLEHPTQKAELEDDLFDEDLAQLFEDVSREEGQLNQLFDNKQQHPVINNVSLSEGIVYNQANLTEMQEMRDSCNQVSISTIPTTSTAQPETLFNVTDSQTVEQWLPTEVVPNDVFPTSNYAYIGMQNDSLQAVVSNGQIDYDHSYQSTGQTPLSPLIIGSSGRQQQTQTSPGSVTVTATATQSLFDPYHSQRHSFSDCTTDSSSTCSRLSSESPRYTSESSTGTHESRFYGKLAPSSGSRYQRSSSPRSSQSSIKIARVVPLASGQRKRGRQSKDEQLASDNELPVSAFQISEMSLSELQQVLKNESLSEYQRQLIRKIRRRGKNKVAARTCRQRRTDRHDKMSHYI

[13] = biological target: DNA dC->dU-editing enzyme APOBEC-3A (Homo sapiens, UniProt P31941); test: Dose Response confirmation of small molecule APOBEC3A DNA Deaminase Inhibitors via a fluorescence-based single-stranded DNA deaminase assay. [Related pubchem assays (depositor defined):AID493011, AID493024]; type: functional
Cytochrome P450 2D6 = Cytochrome P450 2D6 (Homo sapiens, UniProt P10635);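 also: CYP2D6 member of a cytochrome P450 panel assay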
Cytochrome P450 3A4 = Cytochrome P450 3A4 (Homo sapiens, UniProt P08684);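 also: CYP3A4 tested as one member of a cytochrome P450 panel screen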
Cytochrome P450 2C19 = Cytochrome P450 2C19 (Homo sapiens, UniProt P33261); test: Cytochrome panel assay with activity outcomes. Panel member name: p450-cyp2c19 Compounds with AC50 equal or less than 10 uM are considered active; type: functional
Cytochrome P450 1A2 = biological target: T4, Cytochrome P450 1A2 (Homo sapiens, UniProt P05177);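 also: PubChem cytochrome P450 panel assay, CYP1A2 panel member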
T4 sequence (P05177 whole entry): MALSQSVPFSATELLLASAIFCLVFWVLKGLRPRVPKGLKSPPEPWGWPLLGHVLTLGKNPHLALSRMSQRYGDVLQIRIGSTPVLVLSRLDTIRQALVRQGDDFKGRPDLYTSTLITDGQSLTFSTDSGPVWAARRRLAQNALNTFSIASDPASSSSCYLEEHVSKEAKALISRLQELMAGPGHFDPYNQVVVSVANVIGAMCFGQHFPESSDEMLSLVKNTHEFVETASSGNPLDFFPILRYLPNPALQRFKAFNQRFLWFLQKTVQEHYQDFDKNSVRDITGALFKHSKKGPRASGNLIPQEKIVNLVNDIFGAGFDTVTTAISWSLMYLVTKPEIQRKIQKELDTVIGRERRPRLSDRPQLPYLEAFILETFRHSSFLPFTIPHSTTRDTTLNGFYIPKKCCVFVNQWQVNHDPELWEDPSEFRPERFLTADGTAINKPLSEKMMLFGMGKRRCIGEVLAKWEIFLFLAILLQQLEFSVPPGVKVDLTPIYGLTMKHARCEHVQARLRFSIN

Cytochrome P450 2C9 = Cytochrome P450 2C9 (Homo sapiens, UniProt P11712)
Sequence of Cytochrome P450 2C9 (P11712 whole entry): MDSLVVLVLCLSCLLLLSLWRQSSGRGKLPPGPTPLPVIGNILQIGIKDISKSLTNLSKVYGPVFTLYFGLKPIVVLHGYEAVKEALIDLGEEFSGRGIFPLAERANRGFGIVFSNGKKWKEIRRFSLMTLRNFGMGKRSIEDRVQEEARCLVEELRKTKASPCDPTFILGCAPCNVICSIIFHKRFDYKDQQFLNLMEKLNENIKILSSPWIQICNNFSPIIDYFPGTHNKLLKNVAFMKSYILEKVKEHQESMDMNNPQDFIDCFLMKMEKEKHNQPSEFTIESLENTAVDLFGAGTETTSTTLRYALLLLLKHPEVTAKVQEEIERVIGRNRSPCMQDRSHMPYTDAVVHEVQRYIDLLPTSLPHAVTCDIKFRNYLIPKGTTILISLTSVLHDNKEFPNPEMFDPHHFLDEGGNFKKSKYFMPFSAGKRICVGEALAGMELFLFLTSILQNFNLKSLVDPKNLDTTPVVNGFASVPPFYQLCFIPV

Sequence of Cytochrome P450 3A4 (P08684 whole entry): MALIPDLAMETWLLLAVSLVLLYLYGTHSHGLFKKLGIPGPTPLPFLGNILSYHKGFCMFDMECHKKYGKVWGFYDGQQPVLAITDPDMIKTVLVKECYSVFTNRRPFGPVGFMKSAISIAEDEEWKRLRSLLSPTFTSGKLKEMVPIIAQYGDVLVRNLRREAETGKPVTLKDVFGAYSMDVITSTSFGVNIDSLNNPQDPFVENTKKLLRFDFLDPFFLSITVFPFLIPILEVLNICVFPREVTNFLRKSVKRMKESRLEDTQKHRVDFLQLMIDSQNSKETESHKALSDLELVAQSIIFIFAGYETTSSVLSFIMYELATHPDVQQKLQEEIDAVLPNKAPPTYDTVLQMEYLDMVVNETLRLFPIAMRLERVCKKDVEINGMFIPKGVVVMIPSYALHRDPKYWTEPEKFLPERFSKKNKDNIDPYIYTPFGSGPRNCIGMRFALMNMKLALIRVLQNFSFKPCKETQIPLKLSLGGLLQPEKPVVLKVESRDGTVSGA
Sequence of Cytochrome P450 2D6 (P10635 whole entry): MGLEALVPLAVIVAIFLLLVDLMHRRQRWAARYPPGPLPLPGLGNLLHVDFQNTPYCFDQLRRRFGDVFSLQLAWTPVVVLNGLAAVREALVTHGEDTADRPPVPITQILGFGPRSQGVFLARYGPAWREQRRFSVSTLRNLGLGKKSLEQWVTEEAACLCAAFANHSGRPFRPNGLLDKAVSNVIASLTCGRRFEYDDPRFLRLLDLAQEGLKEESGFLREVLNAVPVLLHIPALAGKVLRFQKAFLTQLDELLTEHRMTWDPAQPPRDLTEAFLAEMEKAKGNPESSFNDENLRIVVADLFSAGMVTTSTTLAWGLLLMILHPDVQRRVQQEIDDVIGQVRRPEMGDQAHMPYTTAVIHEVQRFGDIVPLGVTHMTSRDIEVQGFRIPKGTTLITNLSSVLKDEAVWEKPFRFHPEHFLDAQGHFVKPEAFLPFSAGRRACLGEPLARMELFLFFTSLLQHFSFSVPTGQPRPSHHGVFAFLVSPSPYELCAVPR
Sequence of Cytochrome P450 2C19 (P33261 whole entry): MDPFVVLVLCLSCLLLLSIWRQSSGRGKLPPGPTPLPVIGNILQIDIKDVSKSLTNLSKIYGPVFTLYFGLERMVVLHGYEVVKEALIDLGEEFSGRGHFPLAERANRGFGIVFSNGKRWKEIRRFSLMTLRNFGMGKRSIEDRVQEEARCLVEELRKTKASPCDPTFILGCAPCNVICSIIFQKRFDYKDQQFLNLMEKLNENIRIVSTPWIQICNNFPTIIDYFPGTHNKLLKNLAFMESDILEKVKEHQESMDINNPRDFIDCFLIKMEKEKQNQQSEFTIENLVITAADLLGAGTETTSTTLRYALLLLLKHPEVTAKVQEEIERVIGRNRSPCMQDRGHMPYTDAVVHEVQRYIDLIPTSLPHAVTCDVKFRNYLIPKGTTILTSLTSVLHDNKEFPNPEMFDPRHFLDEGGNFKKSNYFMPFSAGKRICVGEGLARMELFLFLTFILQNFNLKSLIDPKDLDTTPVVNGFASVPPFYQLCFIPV
Sequence of DNA dC->dU-editing enzyme APOBEC-3A (P31941 whole entry): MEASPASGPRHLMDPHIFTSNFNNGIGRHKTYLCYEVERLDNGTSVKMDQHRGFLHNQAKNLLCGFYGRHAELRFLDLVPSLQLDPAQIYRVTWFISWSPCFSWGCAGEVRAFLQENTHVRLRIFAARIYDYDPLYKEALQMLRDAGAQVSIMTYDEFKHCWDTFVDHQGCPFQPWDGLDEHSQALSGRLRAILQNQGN
Sequence of 5-hydroxytryptamine receptor 5A (P47898 whole entry): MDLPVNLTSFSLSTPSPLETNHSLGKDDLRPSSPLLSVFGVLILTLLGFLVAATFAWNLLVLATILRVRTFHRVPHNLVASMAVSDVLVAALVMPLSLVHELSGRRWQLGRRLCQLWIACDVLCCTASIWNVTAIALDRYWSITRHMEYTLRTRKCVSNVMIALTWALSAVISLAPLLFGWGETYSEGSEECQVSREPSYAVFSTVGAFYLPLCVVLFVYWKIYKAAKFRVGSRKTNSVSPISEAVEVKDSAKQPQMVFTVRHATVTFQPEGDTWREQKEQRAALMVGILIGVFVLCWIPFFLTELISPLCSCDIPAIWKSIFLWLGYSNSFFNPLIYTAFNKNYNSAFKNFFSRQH
Sequence of Luciferin 4-monooxygenase (P08659 whole entry): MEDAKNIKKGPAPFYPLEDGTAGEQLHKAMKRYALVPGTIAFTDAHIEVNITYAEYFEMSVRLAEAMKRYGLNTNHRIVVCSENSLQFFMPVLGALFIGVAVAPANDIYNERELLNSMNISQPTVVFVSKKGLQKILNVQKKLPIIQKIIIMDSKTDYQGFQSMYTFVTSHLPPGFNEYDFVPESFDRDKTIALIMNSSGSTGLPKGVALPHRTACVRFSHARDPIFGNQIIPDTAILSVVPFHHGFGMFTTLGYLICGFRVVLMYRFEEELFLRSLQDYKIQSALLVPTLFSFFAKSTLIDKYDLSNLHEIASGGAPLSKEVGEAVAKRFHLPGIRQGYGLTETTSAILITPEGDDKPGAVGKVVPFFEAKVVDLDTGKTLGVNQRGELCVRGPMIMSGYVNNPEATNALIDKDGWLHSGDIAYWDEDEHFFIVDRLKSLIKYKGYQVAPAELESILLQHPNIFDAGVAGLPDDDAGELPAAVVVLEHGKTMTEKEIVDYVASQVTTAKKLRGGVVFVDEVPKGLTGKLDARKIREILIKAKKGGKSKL
Sequence of DNA dC->dU-editing enzyme APOBEC-3G (Q9HC16 whole entry): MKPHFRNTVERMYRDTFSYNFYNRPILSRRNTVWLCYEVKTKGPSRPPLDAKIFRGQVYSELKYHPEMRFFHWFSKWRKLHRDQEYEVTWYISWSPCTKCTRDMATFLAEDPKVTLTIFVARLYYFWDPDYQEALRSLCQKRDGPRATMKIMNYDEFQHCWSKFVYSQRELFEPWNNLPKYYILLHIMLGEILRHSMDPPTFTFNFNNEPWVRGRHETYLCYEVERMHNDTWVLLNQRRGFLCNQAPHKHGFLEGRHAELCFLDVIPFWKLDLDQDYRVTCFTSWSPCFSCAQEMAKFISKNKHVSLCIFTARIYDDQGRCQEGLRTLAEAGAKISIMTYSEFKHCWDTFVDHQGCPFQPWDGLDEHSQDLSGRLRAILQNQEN
Sequence of Delta-type opioid receptor (P41143 whole entry): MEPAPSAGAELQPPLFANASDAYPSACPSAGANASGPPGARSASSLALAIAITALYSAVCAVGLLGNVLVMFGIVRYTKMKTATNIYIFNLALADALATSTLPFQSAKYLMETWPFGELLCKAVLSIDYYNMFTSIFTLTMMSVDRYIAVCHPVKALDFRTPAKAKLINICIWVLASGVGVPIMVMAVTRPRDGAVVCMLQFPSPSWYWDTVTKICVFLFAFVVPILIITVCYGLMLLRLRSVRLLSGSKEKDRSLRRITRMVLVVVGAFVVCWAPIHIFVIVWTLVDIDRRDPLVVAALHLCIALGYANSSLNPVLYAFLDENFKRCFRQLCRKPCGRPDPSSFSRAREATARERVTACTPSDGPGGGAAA
Sequence of Mu-type opioid receptor (P35372 whole entry): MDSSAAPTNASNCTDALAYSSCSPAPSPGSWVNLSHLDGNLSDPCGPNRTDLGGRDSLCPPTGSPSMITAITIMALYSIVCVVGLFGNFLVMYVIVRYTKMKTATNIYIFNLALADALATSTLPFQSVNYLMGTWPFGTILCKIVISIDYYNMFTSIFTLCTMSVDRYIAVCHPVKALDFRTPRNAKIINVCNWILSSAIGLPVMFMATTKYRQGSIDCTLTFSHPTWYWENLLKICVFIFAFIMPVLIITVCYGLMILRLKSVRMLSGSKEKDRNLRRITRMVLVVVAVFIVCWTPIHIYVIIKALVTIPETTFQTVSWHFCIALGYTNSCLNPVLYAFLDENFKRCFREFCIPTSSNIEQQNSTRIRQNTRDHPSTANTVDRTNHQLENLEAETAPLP

Compound: c1ccc(NC(=NCc2ccco2)c2ccccc2)cc1
EC50 [1]: 18.8 µM (active) | AC50 (Escherichia coli): 47.6 µM (active)

Compound: Nc1nc(Nc2cccc(F)c2)nc2ccccc12
EC50 [2]: 7.18 µM (active) | EC50 [3]: 0.853 µM (active) | IC50 (cells [4]): > 29.9 µM (inactive) | EC50 (cells [5]): > 29.9 µM (inactive) | AC50 [6]: 4.73 µM (active) | EC50 [7]: 0.364 µM (active) | IC50 [8]: 1.65 µM (active)

EC50 [9]: > 92.5 µM (inactive) | EC50 (Mu-type opioid receptor): > 92.5 µM (inactive) | EC50 [10]: > 92.5 µM (inactive)
Compound: OC(CNCCC(c1ccccc1)c1ccccc1)COc1ccccc1 (centres undefined)

Compound: COC(=O)C1=C(C)N(Cc2ccccc2)C(NCCc2ccccn2)=N[C@H]1c1cccc(F)c1
EC50 [11]: 5.96 µM (active) | IC50 [12]: 4.79 µM (active) | IC50 (Protein skinhead-1): > 100 µM (inactive) | IC50 [13]: 2.67 µM (active)

AC50 (Cytochrome P450 2D6): inconclusive
Compound: CC(C)=NOC[C@@H](O)COCc1ccco1

AC50 (Cytochrome P450 3A4): inconclusive
Compound: N#Cc1cccc(-c2nc3cnc(Oc4cccc(Cl)c4)nc3n(C3CC3)c2=O)c1

AC50 (Cytochrome P450 2D6): inactive | AC50 (Cytochrome P450 3A4): inactive | AC50 (Cytochrome P450 2C19): inactive | AC50 (Cytochrome P450 1A2): 39.8 µM (inconclusive) | AC50 (Cytochrome P450 2C9): inactive
Compound: N[C@@H](CCC(=O)O)C(=O)O [GLUTAMIC ACID]

AC50 [6]: 3.74 µM (active)
Compound: O=c1oc2c(-c3cccc(F)c3)cc(O)cc2s1
